How the values were obtained:
human neutrophils [1] = experiment: Rise in intracellular calcium in INDO-1AM loaded neutrophil suspensions, normal vs Type 1 diabetic; format: cell-based
Text: It was previously reported that the native HX cause a rise in intracellular calcium in suspensions of human neutrophils. […] In view of the findings reported above on alterations in the hepoxilin binding protein in diabetes, it was investigated whether the response to varied amounts of hepoxilin in terms of calcium release was altered in Type 1 diabetic neutrophils. This involved measurement of the rise in intracellular calcium in INDO-1AM loaded neutrophil suspensions spectrofluorometrically after addition of HxA3.
Normal and diabetic neutrophils were compared to 4 concentrations of HxA3, i.e. 100, 200, 500 and 1000 ng added in 1 μl DM50 to 2×10^6 cells/ml. […] Additional data was obtained by administering 1000 ng of hepoxilin five minutes after the first test. Previous results with normal neutrophils have shown that the response to a second addition of hepoxilin is blunted depending on the extent of calcium rise in the first test. […]
(§1) Intracellular free calcium concentrations were monitored continuously in a Perkin-Elmer fluorescence spectrophotometer (Model 65040) using Indo-I AM-loaded neutrophils. […]
(§2) Unloaded dye was removed by centrifugation and the cells were resuspended in fresh RPMI 1640(1 mL). […] The resulting effect was recorded on a chart recorder (LKB model 2210, Pharmacia, Sweden) at 1 cm/min chart speed for the next 5 min (FIG. 20).

human neutrophils [2] = experiment: HxA3-induced rise in intracellular calcium in neutrophils with internalised GTP-γ-S or GTP; format: cell-based; conditions: for effect of internalised nucleotide on HxA3-induced rise in intracellular calcium: approximate cytosolic concentration 21 μM
Text: (§3) For measurement of intracellular calcium, the cells were centrifuged and loaded with INDO-1 AM (see Methods for details). The change in intracellular calcium was monitored with fluorescence spectrophotometer at 331 nm excitation and 410 nm emission. […] Data represents the Mean±SD (n=4 separate experiments).
(§4) The method of Jaconi et al (1993, J. Biol. Chem. 268, 26077-26078] was employed with modifications to incorporate GTP-γ-S or GTP into human neutrophils. Specifically, 20×10^6 cells were incubated in 100 μl of sucrose-rich (500 mM) buffer containing in mM: NaCl 140, KCl 5, MgCl2 1, Hepes sodium-free 10, glucose 10, and EGTA 1, 10% polyetylene glycol 1000, pH 7.3. The buffer either contained nothing else (control) or GTP-γ-S (50 mM) or GTP (50 mM). The cells were incubated for 15 min at 37° C. to allow fluid-phase endocytosis of extracellular material. The cells were hypotonically shocked during 2 min at 37° C. by the addition of 1 mL of hypotonic medium made up of 1 part normal medium and 0.66 parts of water [Hallet & Campbell. 1983, Immunology, 50, 487-495]. The cells were then centrifuged at 900 rpm×5 min and resuspended in 2 mL of calcium-free assay medium for the binding studies or in RPMI 1640 for the calcium measurements. […] The particulate matter was sedimented through centrifugation and fluorescence in the supernatant was measured in a fluorescence spectrophotometer and 430 nm excitation, 540 nm emission using dilutions of the dye as standard. While unshocked neutrophils contained virtually no fluorescence above background, the shocked cells contained approximately 24 ng dye/4×10^6 cells. […]
as §1, §2

[3] = tested on: bleomycin-induced lung fibrosis; experiment: Bleomycin-induced lung injury mouse model; format: in vivo; conditions: for inhibition of bleomycin-evoked lung fibrosis, relative potency: 200 μg/mouse bleomycin, various concentrations
Description: Mice were divided into 7 groups, each containing 5 animals. All groups were administered i.p. saline+7% ethanol as vehicle. Group 1 received only vehicle. Groups 2-7 received intratracheal bleomycin. Bleomycin is an antibiotic having antineoplastic activity. It is used clinically to treat malignancies such as lymphoma and testicular cancer. However, it has several side effects such as causing lung fibrosis characterized by diffuse alveolar hemorrhage and marked accumulation of inflammatory cells and an increase in collagen synthesis. Additionally, Group 3 received Trolox antioxidant, Group 4 received H1, Group 5 received H2, Group 6 received H3, and Group 7 received H4. All hepoxilins were dissolved in 7 μl ethanol and diluted to 100 μl saline for i.p. administration. All compounds were administered daily at the dose of 100 μg/20 g (5000 μg/kg) mouse for 8 days. Lungs from all animals were perfused and fixed for histology. […] As in section B1 above, the effective concentration of the drugs is unknown due to the still undetermined uptake and distribution in the body. The present study served as an indicator of biological activity in vivo. The study was also conducted using saline or 200 μg/mouse bleomycin. In these studies the hepoxilin analogs H1 and H2 were administered in various concentrations (FIGS. 14A-14E). […] Lung fibrosis was associated with increased collagen synthesis (FIGS. 15A, 15B). […] Collagen staining was done using sirius red and fast green.

[4] = tested on: bleomycin-evoked vascular permeability; experiment: Bleomycin-evoked skin vascular permeability (Evans Blue); format: in vivo; conditions: 100 ng intradermally, bleomycin 12 μg
Description: H1 and 2 blocked the bleomycin (12 μg)—evoked vascular permeability at 100 ng intradermally. (FIGS. 18 and 19). Vascular permeability was measured using Evans Blue I.V. Hepoxilin analogs were intradermally applied and within 30 minutes, a formamide extraction of punched skin was done. Extraction and absorbance was read at 620 nm.

[5] = tested on: hepoxilin binding protein in neutrophils; experiment: Binding of [3H]-HxA3 (8S) to neutrophils with internalised GTP-γ-S or GTP; design: species or system human; conditions: approximate cytosolic concentration 21 μM
Text: as §3
as §4, with “487-495].” for “487-495]. The cells were then centrifuged at 900 rpm×5 min and resuspended in 2 mL of calcium-free assay medium for the binding studies or in RPMI 1640 for the calcium measurements.”, “standard.” for “standard. While unshocked neutrophils contained virtually no fluorescence above background, the shocked cells contained approximately 24 ng dye/4×10^6 cells.”

CCCCC/C=C\C[C@@H]1O[C@H]1/C=C/C(O)C/C=C\CCCC(=O)O (stereo partly drawn) [HxA3, 8(S,R)-hydroxy-11(S),12(S)-epoxy-eicosa-5Z, 9E, 14Z-trienoic acid]
calcium response to second addition, diabetic vs normal neutrophils (human neutrophils [1]; 1000 ng five minutes after the first test): more inhibition
rise in intracellular free calcium, diabetic vs normal neutrophils (human neutrophils [1]; 100, 200, 500 and 1000 ng in 1 μl to 2×10^6 cells/ml): diabetic neutrophils are more responsive
change in intracellular calcium (human neutrophils [2]; 2×10^6 cells in 1 mL calcium-free buffer, 37° C.): rapid rise in intracellular calcium

CCCCC/C=C\CC1CC1/C=C/[C@@H](O)C/C=C\CCCC(=O)OC (stereo partly drawn) [H1, 8(S)-hydroxy-11 ,12-cyclopropyl-eicosa-5Z, 10E, 14Z-trienoic acid methyl ester]
inhibition of bleomycin-evoked lung fibrosis, relative potency [3]: most potent
dose dependence of activity against lung fibrosis ([3]; 400 μg/kg, 2 mg/kg, 4 mg/kg): dose dependent
potency against lung fibrosis compared with Amifostine and Trolox ([3]; Amifostine 200 mg/kg, Trolox 30 mg/kg): more potent than Amifostine (200 mg/kg) or Trolox (30 mg/kg)
threshold activity against lung fibrosis ([3]; i.p.): 400 µg/kg
bleomycin-evoked vascular permeability [4]: blocked

Nc1nc2c(ncn2[C@@H]2O[C@H](COP(=O)(O)OP(=O)(O)OP(O)(O)=S)[C@@H](O)[C@H]2O)c(=O)[nH]1 [GTP-γ-S]
effect of internalised nucleotide on HxA3-induced rise in intracellular calcium (human neutrophils [2]): inhibition
effect of internalised nucleotide on binding of [3H]-HxA3 [5]: inhibition

CCCCC/C=C\CC1CC1/C=C/[C@H](O)C/C=C\CCCC(=O)OC (stereo partly drawn) [H2, 8(R)hydroxy-11,12-cyclopropyl-eicosa-5Z, 10E, 14Z-trienoic acid methyl ester]
inhibition of bleomycin-evoked lung fibrosis, relative potency [3]: most potent
bleomycin-evoked vascular permeability [4]: blocked

Nc1nc2c(ncn2[C@@H]2O[C@H](COP(=O)(O)OP(=O)(O)OP(=O)(O)O)[C@@H](O)[C@H]2O)c(=O)[nH]1 [GTP]
effect of internalised nucleotide on HxA3-induced rise in intracellular calcium (human neutrophils [2]): no significant change

Source: patent US6673785B1, “Use of hepoxilins or hepoxilin analogs as antidiabetics, antiinflammatory agents” (priority 1999, dated 2004)
